The subject of one data set is DLD-1 cells. Put plainly: MTS cell viability assay, DLD-1 cells. The format is cell-based. The method, then: (§1) Cell viability is determined by measuring the activity of dehydrogenase enzymes in metabolically active cells using a tetrazolium compound, MTS. The assay is performed as described in Promega Technical Bulletin No. 169 (CellTiter 96 Aqueous Non-Radioactive Cell Proliferation Assay). Two cell lines, DLD-1 and NCM-460 are assayed (see, e.g., Table 2). Cells are maintained at 37° C., 5% CO2. Adherent cells are maintained DMEM media (4.5 g/L glucose) supplemented with 15% heat-inactivated FBS, 10 mM L-glutamine, and 10 mM Hepes pH 7.5. Suspension cells are maintained in RPMI 1640 media, supplemented with 10% heat-inactivated FBS and 10 mM Hepes pH 7.5. […] Candidate compounds, including the polymer-modified therapeutics to be tested, are serially diluted in the indicated solvents are, further diluted in cell culture media, and then added to cells. […] MTS stock solution (MTS 2 gm/L, PMS […] in PBS) is added to the cells (final concentration MTS […] and PMS 7.67 mg/L) and incubated for 4 hours. […] The IC50 is defined as the concentration of compound that results in a 50% reduction in the number of viable cells as compared to control wells treated with DMSO only (0.33%) and 0.3% SDS, and is calculated using non-linear regression analysis.
On the technique in general: Formazan colour is commonly taken as a measure of viable cells.

The next data set has as its system NCM-460 cells. The data set is described as follows: MTS cell viability assay, NCM-460 cells. The format is cell-based. Here is the method: as §1
Data set [1] can be described thus: Hydrolytic release of β-lapachone or ketal from poly-L-glutamate conjugates, monitored by HPLC. The format is physicochemical. An excerpt:
[…] The complete release of 2,2-dimethyl-3,4-dihydro-2H-benzo[h]chromene-5,6-dione from the conjugate is achieved within 2-3 days as monitored by HPLC. In addition to the 2,2-dimethyl-3,4-dihydro-2H-benzo[h]chromene-5,6-dione peak, two additional peaks are detected in the HPLC chromatogram. These peaks are believed to be products of the degradation of 2,2-dimethyl-3,4-dihydro-2H-benzo[h]chromene-5,6-dione and an alternate hydrolysis product of conjugate. The concentration of released 2,2-dimethyl-3,4-dihydro-2′-1-benzo[h]chromene-5,6-dione is calculated by comparing the peak areas with the previously obtained calibration curve of 2,2-dimethyl-3,4-dihydro-2H-benzo[h]chromene-5,6-dione standard. […] Loading on the polymer is then calculated as follows: […]
The conjugate is dissolved in water at a concentration of about 0.3 mg/ml and sonicated to facilitate dissolution. […] The concentration of released 2,2-dimethyl-3,4-dihydro-2H-benzo[h]chromene-5,6-dione is determined by HPLC and the quantity calculated by comparing the peak areas with a previously obtained calibration curve of 2,2-dimethyl-3,4-dihydro-2H-benzo[h]chromene-5,6-dione standard, as described above in Example 10. […]

The next data set relates to human cancer cell lines. The settings on record: single agent; typical range; read-out: antineoplastic activity against human cancer cell lines (IC50); cited from earlier work.
Data set [2] concerns human peripheral blood mononuclear cells (PBMC). The settings on record: cited from earlier work.
In data set [3] the target is T1, human DNA Topoisomerases I (Homo sapiens, UniProt P11387).
T1 sequence (P11387 1-765): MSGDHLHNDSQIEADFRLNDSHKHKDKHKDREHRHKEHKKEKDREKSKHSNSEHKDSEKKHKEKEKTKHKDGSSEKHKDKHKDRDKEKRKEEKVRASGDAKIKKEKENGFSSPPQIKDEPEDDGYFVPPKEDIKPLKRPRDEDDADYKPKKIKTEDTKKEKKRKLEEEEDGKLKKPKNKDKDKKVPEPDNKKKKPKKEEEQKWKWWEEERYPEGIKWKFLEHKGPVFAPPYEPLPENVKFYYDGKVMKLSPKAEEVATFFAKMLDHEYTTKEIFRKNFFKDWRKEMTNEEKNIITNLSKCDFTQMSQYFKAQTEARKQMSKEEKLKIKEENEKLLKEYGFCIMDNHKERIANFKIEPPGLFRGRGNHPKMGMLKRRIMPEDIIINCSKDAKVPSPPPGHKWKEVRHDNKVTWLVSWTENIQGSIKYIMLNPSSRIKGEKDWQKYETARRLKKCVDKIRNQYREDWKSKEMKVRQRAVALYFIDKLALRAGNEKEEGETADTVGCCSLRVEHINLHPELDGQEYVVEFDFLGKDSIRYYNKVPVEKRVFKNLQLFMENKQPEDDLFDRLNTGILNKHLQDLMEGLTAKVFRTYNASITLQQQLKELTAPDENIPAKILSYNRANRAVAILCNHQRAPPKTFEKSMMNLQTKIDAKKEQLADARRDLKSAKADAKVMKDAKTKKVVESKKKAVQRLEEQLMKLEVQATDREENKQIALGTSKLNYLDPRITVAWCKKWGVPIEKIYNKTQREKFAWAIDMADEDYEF
The settings on record: cited from earlier work.

Data set [4] concerns the target human DNA Topoisomerases II (Homo sapiens, UniProt P11388). The settings on record: cited from earlier work.

human DNA Topoisomerases II, sequence (P11388 whole entry): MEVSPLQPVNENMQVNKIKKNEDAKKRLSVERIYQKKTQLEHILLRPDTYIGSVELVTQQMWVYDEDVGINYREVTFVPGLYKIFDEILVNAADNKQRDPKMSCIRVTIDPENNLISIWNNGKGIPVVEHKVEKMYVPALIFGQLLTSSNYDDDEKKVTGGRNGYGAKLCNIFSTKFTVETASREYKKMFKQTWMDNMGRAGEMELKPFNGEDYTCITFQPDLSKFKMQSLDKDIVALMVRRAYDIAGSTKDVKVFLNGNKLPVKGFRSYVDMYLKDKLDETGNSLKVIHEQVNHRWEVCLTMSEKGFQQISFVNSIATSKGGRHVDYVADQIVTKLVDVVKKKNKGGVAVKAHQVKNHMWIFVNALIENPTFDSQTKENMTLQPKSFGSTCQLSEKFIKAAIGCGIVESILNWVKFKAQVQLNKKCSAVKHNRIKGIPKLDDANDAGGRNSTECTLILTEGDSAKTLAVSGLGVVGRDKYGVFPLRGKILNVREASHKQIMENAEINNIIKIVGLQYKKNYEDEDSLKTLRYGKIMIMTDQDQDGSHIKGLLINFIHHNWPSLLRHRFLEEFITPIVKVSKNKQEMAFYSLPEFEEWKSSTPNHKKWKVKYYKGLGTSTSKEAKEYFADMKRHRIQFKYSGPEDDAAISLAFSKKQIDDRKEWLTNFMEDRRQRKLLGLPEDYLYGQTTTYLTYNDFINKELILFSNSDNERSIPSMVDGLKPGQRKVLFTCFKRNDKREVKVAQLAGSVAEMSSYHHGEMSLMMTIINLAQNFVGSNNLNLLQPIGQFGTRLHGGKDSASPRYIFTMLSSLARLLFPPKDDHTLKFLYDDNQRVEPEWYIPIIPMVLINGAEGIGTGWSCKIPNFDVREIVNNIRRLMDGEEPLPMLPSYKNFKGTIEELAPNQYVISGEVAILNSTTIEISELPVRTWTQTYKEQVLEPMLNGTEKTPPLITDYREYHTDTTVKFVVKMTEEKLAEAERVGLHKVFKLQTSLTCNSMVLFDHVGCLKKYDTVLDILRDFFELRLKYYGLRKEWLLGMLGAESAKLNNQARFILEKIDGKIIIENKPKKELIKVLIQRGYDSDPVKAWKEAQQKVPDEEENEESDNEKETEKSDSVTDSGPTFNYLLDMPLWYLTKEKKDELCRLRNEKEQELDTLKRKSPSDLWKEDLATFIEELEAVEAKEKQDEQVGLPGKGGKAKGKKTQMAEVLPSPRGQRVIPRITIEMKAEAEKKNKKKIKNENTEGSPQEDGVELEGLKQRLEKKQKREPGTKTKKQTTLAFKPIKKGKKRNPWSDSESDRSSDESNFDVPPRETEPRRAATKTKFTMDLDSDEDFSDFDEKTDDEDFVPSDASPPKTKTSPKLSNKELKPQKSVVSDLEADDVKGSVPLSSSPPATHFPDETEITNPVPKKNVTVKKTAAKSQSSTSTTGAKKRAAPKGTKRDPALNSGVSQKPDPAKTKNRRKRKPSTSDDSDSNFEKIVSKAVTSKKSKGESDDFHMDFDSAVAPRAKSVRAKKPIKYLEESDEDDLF

What is called IC50 is the concentration needed to halve the response being measured. In the case of “5-(acetyloxy)-2,2-dimethyl-3,4-dihydro-2H-benzo[h]chromen-6-yl glycinate γ-poly-L-glutamate”, the 50% inhibitory concentration (IC50) amounted to 4.42 µM with DLD-1 cells (incubation time 20 hours), 1.39 µM in the data set with DLD-1 cells (incubation time 72 hours), 8.12 µM with NCM-460 cells (incubation time 20 hours) and 3.66 µM in the data set on NCM-460 cells (incubation time 72 hours). In data set [1] (pH 11.4), the “time for hydrolysis of β-lapachone from the conjugate” value is reported as 20 min. In addition, the “time to complete release of β-lapachone from the conjugate” value in data set [1] (phosphate buffer pH 9.6, about 0.1 mg/ml) lay in the range of 2 to 3 days.
For the compound `CC1(C)CCC2=C(O1)c1ccccc1C(=O)C2=O` [β-lapachone, 3,4-dihydro-2,2-dimethyl-2H-naphtho[1,2-b]pyran-5,6-dione, reference compound], the half-inhibitory concentration (IC50) is 3.13 µM in the data set with DLD-1 cells (Homo sapiens, DLD-1, incubation time 20 hours); 1.71 µM with DLD-1 cells (Homo sapiens, DLD-1, incubation time 72 hours); 8.19 µM in the data set on NCM-460 cells (Homo sapiens, NCM460, incubation time 20 hours); 3.25 µM in the data set with NCM-460 cells (Homo sapiens, NCM460, incubation time 72 hours); 1 to 10 µM with human cancer cell lines. Also, the “cytotoxic effects on normal fresh or proliferating human PBMC” value in data set [2] is “No cytotoxic effects were observed”. Moreover, the “in vitro inhibition of human DNA Topoisomerase I” value in data set [3] was “potent in vitro inhibition”. The “in vitro inhibition of human DNA Topoisomerase II” value in data set [4] is “potent in vitro inhibition”.
Turning to “(2,2-dimethyl-5-oxo-3,4-dihydro-2H,5H-spiro[benzo[h]chromene-6,2′-[1,3]dioxolan]-4′-yl)methyl γ-poly-L-glutamate sodium”, the concentration for half-maximal inhibition (IC50) with DLD-1 cells (incubation time 20 hours), with DLD-1 cells (incubation time 72 hours), in the data set with NCM-460 cells (incubation time 20 hours) and with NCM-460 cells (incubation time 72 hours) was over 100 µM each time.

Values taken from patent US20090226395A1, “Pharmaceutical compositions of beta-lapachone and beta-lapachone analogs with improved tumor targeting potential” (ArQule, Inc., priority 2004, published 2009).
